Measured values as given in US20140234455A1, “ANTIMICROBIAL COMPOSITION, METHOD FOR ITS PREPARATION AND ITS USE” (PATOLAB OY, priority 2011, published 2014).

Experiments:
Assay type in all cases: cell-based
Settings in all cases: tested after one week washing, 24 hours incubation, Example 2 stock diluted 1:1 with tap water
A. niger = assay: Challenge test on a steel plate (EN 13697)
[1] = tested on: Staphylococcus aureus (MRSA); assay: ISO 20645/20743 challenge test in accordance with EN 13697 on a steel plate
E. coli = assay: Challenge test on a steel plate (EN 13697)
Procedure: The test was performed after one week washing the steel plate with the composition.

Enteroc. = assay: Challenge test on a steel plate (EN 13697)
C. albicans = assay: Challenge test on a steel plate (EN 13697)
PS. aerug. = assay: Challenge test on a steel plate (EN 13697)

CCO [70% ethanol, ethanol]
log 1: Reduction in growth of microorganisms, A. niger (A. niger) | Reduction in growth of microorganisms, MRSA (Staphylococcus aureus) [1] | Reduction in growth of microorganisms, E. coli (E. coli) | Reduction in growth of microorganisms, Enteroc. (Enteroc.) | Reduction in growth of microorganisms, C. albicans (C. albicans) | Reduction in growth of microorganisms, PS. aerug. (PS. aerug.)
